{"source": "patent US5071988A", "about": "“Substituted benzoylbenzene-, biphenyl- and 2-oxazole-alkanoic acid derivatives” (American Home Products Corporation, priority 1991, dated 1991)", "key": {"TxB2": {"test_system": "TxB2", "assay": "reverse passive Arthus pleurisy assay, TxB2", "assay_type": "in vivo, rat (male Lewis)", "settings": "Rattus norvegicus, po, 5 min, read-out: ED50 TxB2", "method": "(§1) The compounds of the invention are further tested in the reverse passive Arthus pleurisy assay to evaluate their effectiveness in inflammatory mediator release and/or the fluid and cellular phases of an inflammatory response.\n(§2) A reverse passive Arthus reaction is induced in the pleural cavity of male Lewis rats (150-200 g; fasted overnight prior to use) by the intravenous administration of bovine serum albumin (BSA; 4 mg/0.2 ml) followed by 30 minutes later by the injection of rabbit anti-BSA (1 mg/0.2 ml; lyophilized IgG fraction; Organon Teknika, West Chester, Pa.) into the right pleural space under halothane anesthesia. Drugs or vehicle (0.5% Tween-80) control are administered orally in a volume of 1 ml/100 g body weight at 1 hour prior to the anti-BSA. Animals are sacrificed at either the time of peak eicosanoid production (i.e. 5 minutes after anti-BSA for immunoreactive TxB2 10 minutes for immunoreactive LTB4, 20 minutes for immunoreactive LTC4) or at the time of peak neutrophil infiltration (4 hours after anti-BSA) by CO2 inhalation. The pleural cavity is then exposed, the fluid exudate removed by gentle vacuum aspiration and the volume of exudate is recorded. For the determination of cellular infiltration, the pleural cavity is rinsed with 3 ml of 0.1% EDTA in sterile saline, and the recovered wash is pooled with the exudate. Cell number is determined on a model ZBI Coulter counter. For determination of eicosanoid production, undiluted pleural exudate is microfuged and the supernatant is extracted with ethanol (8-10 times volume). Extracts are either stored at -20° C., or are evaporated to dryness under a stream of N2 and reconstituted in radioimmunoassay (RIA) buffer.\n(§3) Eicosanoids are quantitated by RIA according to the procedure specified by the RIA kit manufacturer (Advanced Magnetics, Cambridge, Mass.). Briefly, 100 μl of ^3 H-labeled eicosanoid and 100 μl of specific antibody are sequentially added to 100 μl of extracted pleural exudate in BGG -phosphate buffer which contains 0.01M phosphate, 0.1% bovine gamma globulin and 0.1% sodium azide at pH 7.0. Antibody-bound eicosanoid is separated from unbound eicosanoid by the addition of 750 μl of dextran (0.4%)-coated charcoal (0.4% Norit A) containing 0.1% sodium azide. The mixture is centrifuged at 2000 RPM at 5° C. for 15 minutes to pellet the charcoal and adsorbed unbound eicosanoid. Antibody-bound labeled eicosanoid is quantitated by counting in a liquid scintillation counter, and is correlated to concentration by a standard curve.\n(§4) Inflammatory cells are expressed as 10^6 cells/ml, pleural exudate is expressed as ml of fluid, and the amount of eicosanoids in the pleural cavity is expressed as ng/ml of exudate. Mean±S.E.M. is determined for each group. Percent inhibition (% I) of cell number, exudate volume and eicosanoid production is calculated for vehicle-treated control groups, and the responses in drug-treated rats are then expressed as the mean % I of the control. […] Exp. Ther., 96, 99-113 (1949)."}, "[1]": {"test_system": "6-keto-PGF1α /TxB2 (cyclooxygenase pathway)", "assay": "in vivo murine zymosan peritonitis assay, 6-keto-PGF1α", "set-up": "species or system mouse (male CD-1)", "method": "(§5) The compounds of the invention are evaluated for their ability to inhibit the lipoxygenase and/or cyclooxygenase pathways of arachidonic acid metabolism in the in vivo murine zymosan peritonitis assay.\nMale CD-1 mice (8 weeks old) are placed in plastic boxes in groups of six. Animals are injected with 1 mL i.p. of either 1% zymosan in pyrogen free 0.9% saline or saline (unstimulated control). Compounds are dosed orally 1 hour prior to zymosan injection. Twenty minutes after zymosan injection, the mice are asphyxiated by CO2 inhalation and the peritoneal cavity is lavaged with 2 mL ice cold Hanks Balanced Salt Solution (HBSS) without CaCl2, MgSO4. 7H2 O and MgCl2.6H2 O. Peritoneal lavage fluid from each mouse is removed by syringe and placed in 5 mL plastic test tubes put on ice and volume is noted. Preparation of samples for evaluation by ELISA is as follows: Samples are centrifuged at 800 xg for 15 minutes; 1 mL of the supernatant is added to 8 mL ice cold methanol and kept at -70° C. overnight to precipitate protein; and samples are then centrifuged at 800 xg for 15 minutes, followed by a drying procedure in a Savant speed vac concentrator. […]\n(§6) The total metabolite level in lavage fluid/mouse is calculated and the significance is determined by a one-way analysis of variance with LSD comparisons to control (p≤0.05). Drug effects are expressed as a percent change from control values."}, "Fluid Exudation": {"test_system": "Fluid Exudation", "assay": "reverse passive Arthus pleurisy assay, fluid exudation", "assay_type": "in vivo, rat (male Lewis)", "settings": "Rattus norvegicus, po, 1 hour prior to anti-BSA; standard drugs", "method": "as §1, §2, §4"}, "LTB4": {"test_system": "LTB4", "assay": "reverse passive Arthus pleurisy assay, LTB4", "assay_type": "in vivo, rat (male Lewis)", "settings": "Rattus norvegicus, po, 1 hour prior to anti-BSA; standard drugs; read-out: ED50 LTB4", "method": "as §1, §2, §3, §4"}, "Cellular Influx": {"test_system": "Cellular Influx", "assay": "reverse passive Arthus pleurisy assay, cellular influx", "assay_type": "in vivo, rat (male Lewis)", "settings": "Rattus norvegicus, po, 4 h, 1 hour prior to anti-BSA; standard drugs", "method": "as §1, §2, §4"}, "[2]": {"test_system": "LTC4 (lipoxygenase pathway)", "assay": "in vivo murine zymosan peritonitis assay, LTC4", "set-up": "species or system mouse (male CD-1)", "settings": "for ED50 LTC4: p.o., 1 hour prior to zymosan, standard drugs", "method": "as §5\nMale CD-1 mice (8 weeks old) are placed in plastic boxes in groups of six. Animals are injected with 1 mL i.p. of either 1% zymosan in pyrogen free 0.9% saline or saline (unstimulated control). Compounds are dosed orally 1 hour prior to zymosan injection. Twenty minutes after zymosan injection, the mice are asphyxiated by CO2 inhalation and the peritoneal cavity is lavaged with 2 mL ice cold Hanks Balanced Salt Solution (HBSS) without CaCl2, MgSO4. 7H2 O and MgCl2.6H2 O. Peritoneal lavage fluid from each mouse is removed by syringe and placed in 5 mL plastic test tubes put on ice and volume is noted. Preparation of samples for evaluation by ELISA is as follows: Samples are centrifuged at 800 xg for 15 minutes; 1 mL of the supernatant is added to 8 mL ice cold methanol and kept at -70° C. overnight to precipitate protein; and samples are then centrifuged at 800 xg for 15 minutes, followed by a drying procedure in a Savant speed vac concentrator. The samples are reconstituted with 1 mL ice cold ELISA buffer and stored at -70° C. until assayed. The assay for eicosanoids (LTC4 and 6-keto-PGF1α) is performed according to conventional ELISA procedures.\nCompounds to be tested orally are suspended in 0.5% Tween 80. Compounds to be tested intraperitoneally are suspended in 0.5% methylcellulose in 0.9% saline.\nas §6"}, "[3]": {"test_system": "LTB4 synthesis by rat glycogen-elicited polymorphonuclear leukocytes (PMN)", "assay": "inhibition of LTB4 synthesis by rat glycogen-elicited polymorphonuclear leukocytes (PMN)", "assay_type": "cell-based, rat (female Wistar)", "settings": "Leukocyte, at 10 μM", "from_the_text": "This is especially true with respect to 5,12-diHETE, which is also denoted as LTB4 [see Ford-Hitchinson, J. Roy. […] Med., 74, 831 (1981)]. Compounds which inhibit the PLA2 -mediated release of arachidonic acid thereby effectively prevent the oxidation of arachidonic acid to the various leukotriene products via the lipoxygenase cascade. Accordingly, the specificity of action of PLA2 inhibitors can be determined by the activity of test compounds in this assay, which measures the ability of compounds to inhibit the synthesis of LTB4 by rat glycogen-elicited polymorphonuclear leukocytes (PMN) in the presence of exogenous substrate.\nThe assay is carried out as follows:\nRat polymorphonuclear leukocytes (PMNs) are obtained from female Wistar rats (150-200 g) which receive an injection of 6% glycogen (10 ml i.p.). Rats are sacrificed 18-24 hours post injection by CO2 asphyxiation and the elicited cells are harvested by peritoneal lavage using physiological saline (0.9% NaCl). The exudate is centrifuged at 400 xg for 10 minutes. The supernatant fluid is discarded and the cell pellet is resuspended to a concentration of 2.0×10^7 cells/mL in HBSS containing Ca^++ and Mg^++ and 10 μM L-cysteine.\nTo 1 mL aliquots of cell suspension, test drugs or vehicle are added, then preincubated at 37° C. for 10 minutes. A23187 (1 μM), [^3 H]-AA (3.0 μCi/mL) and unlabeled AA (1 μM) are then added and the samples are further incubated for 10 minutes. The reaction is terminated by centrifugation and pelleting cells. Supernatants are then analyzed by HPLC analysis on a 15 cm×4.6 mm ID supelcosil LC-18 (Supelco)(3M) column, using a two solvent system at a flow rate of 1.4 mL total flow as follows:\nGradient: (system is equilibrated with Solvent A)\nPercent solvent changes are accomplished in a linear fashion.\nInjections: 140 μL of each supernatant is injected directly onto column and ^3 H arachidonic acid metabolites are monitored using an on-line radioactivity detector (Ramona, IN/US, Fairfield, N.J.).\nStandards: 10^4 -2.0×10^4 dpm of eicosanoids of interest are injected in 90 μL EtOH cocktail.\nResults are expressed as percent inhibition at a given compound dose or as an IC50 value."}}, "note": "Read-outs that look alike come from different tables or passages of the source.", "data": [{"smiles": "NC1=NN(c2cccc(C(F)(F)F)c2)CC1", "note": "[BW755C]", "values": [{"measurement": "ED50", "setting": "TxB2; p.o., 1 hour prior to anti-BSA, standard drugs", "result": 18, "unit": "mg/kg"}, {"measurement": "ED50", "setting": "[1]; Mus musculus, po, 20 min, 1 hour prior to zymosan, standard drugs", "result": 22, "unit": "mg/kg"}, {"measurement": "ED30", "setting": "Fluid Exudation", "result": 14, "unit": "mg/kg"}, {"measurement": "ED50", "setting": "LTB4", "result": 23, "unit": "mg/kg"}, {"measurement": "ED30", "setting": "Cellular Influx", "result": 28, "unit": "mg/kg"}]}, {"smiles": "O=C(O)CCc1nc(-c2ccc(OCc3ccc4ccccc4n3)cc2)c(-c2ccccc2)o1", "note": "[Example 5, 5-Phenyl-4-[4-(2-Quinolinylmethoxy)phenyl]-2-oxazole propanoic acid]", "values": [{"measurement": "% Inhibition LTC4", "setting": "[2]; 10 mg/kg i.p.", "result": 86, "unit": "%"}, {"measurement": "% Inhibition 6-keto-PGF", "setting": "[1]; 10 mg/kg i.p., negative values denote potentiation", "result": -27, "unit": "%"}, {"measurement": "inhibition at 10 µM", "setting": "[3]", "result": 96, "unit": "%"}]}, {"smiles": "CC(C)Cc1ccc(C(C)C(=O)O)cc1", "note": "(centres unmarked) [Ibuprofen]", "values": [{"measurement": "ED50 LTC4", "setting": "[2]", "result": "Not Active"}]}, {"smiles": "COc1ccc2c(c1)c(CC(=O)O)c(C)n2C(=O)c1ccc(Cl)cc1", "note": "[Indomethacin]", "values": [{"measurement": "ED50 LTC4", "setting": "[2]", "result": "Not Active"}, {"measurement": "ED50", "setting": "TxB2", "result": 0.16, "unit": "mg/kg"}]}]}
